Columns and labels:
[1] = tested on: UGT1A1; experiment: Protein expression of UGT1A1 (western blot); type: cell-based, human
Description: (§1) 1 × 10^6 cells were seeded in a 10 cm plate, incubated at 37 °C for overnight and treated with various concentrations of compounds for the indicated times. After incubation, the culture medium was removed and washed twice with 2 mL ice-cold 1× PBS. Three hundred μL of protein lysis buffer (150 mM NaCl, 50 mM Tris-HCl (pH 7.4), 1% SDS, 1% Triton X-100, 1 mM PMSF) was added into each plate, scraped with a rubber policeman, collected into a premarked microtube and the incubated in ice for 1 h, sonicated by Ultrasonic Cell Disruptor for three time at 5 s each. The cell lysated was cleared by centrifugation at 12,000× g for 15 min at 4 °C. Supernatants were transferred into a fresh marked microtube and stored at −20 °C for future use.
(§2) Protein concentration of each sample was determined using a BCA Protein Assay Kit (Pirece®, Thermo Scientific). Different percentages of SDS-PAGE gels were prepared according to the molecular size of proteins of interest. After complete polymerization of stacking gels, each sample with equal amount of total protein was separated in polyacrylamide gels (stacking gel: 50 v, 60 min; separating gel: 100 v, 60 min). After separating, wet-transfer method was utilized to transfer proteins onto the PVDF membrane. The gels were assembled in the transfer sandwich and put in a transfer tank filled with transfer buffer (25 mM glycine, 0.15% ethanolamine, 20% methanol). The electro-transfer was performed at the voltage of 100 volt for 80 min at 4 °C. After transfer, PVDF-membrane was blocked with 5% BSA in 1× TBS-Tween at room temperature for 1 h. Membrane was washed with 10 mL 1× TBS-Tween three times and incubated with primary antibodies overnight at 4 °C with gentle agitation. After primary antibody was removed, the membrane was washed three times with 10 mL 1× TBS-Tween for 10 min at room temperature with constant shaking. […] The emitted fluorescence from the membrane was caught on a LAS-4000 biomolecule imager (FUJI.).

[2] = tested on: MRP2; experiment: Protein expression of MRP2 (western blot); type: cell-based, human
Description: Figure 7 The protein expressions of MRP2 after 6,7-diprenoxycoumarin (50) treatment. Hep3B cell (1 × 10^6) were treated with 50 (5, 10, 20 and 40 μM) for 24 h. Treated cell lysates were prepared as described in the Methods section and the expression of MRP2 was analyzed by western blot.
as §1
as §2, with “agitation.” for “agitation. After primary antibody was removed, the membrane was washed three times with 10 mL 1× TBS-Tween for 10 min at room temperature with constant shaking.”

[3] = Preliminary pharmacokinetic study, plasma concentration by RP-HPLC-fluorescence; type: in vivo, C57BL/6 mice; conditions: for desired plasma concentration (10 μM) reached: dose 0.5 mg/mouse, desired ~2 μg/mL for scoparone, ~3 μg/mL for 50
From the text: S23 Preliminary pharmacokinetic studies of scoparone and 6,7-diprenoxycoumarin
Table S1 Blood concentration of scoparone. mouse Dose given (mg) Body weight (g) Time (min) Cal. Conc. (µg/ml) […]
Table S2 Blood concentration of 6,7-diprenoxycoumarin.
Adopt previous study on fraxetin (unpublished result) , a coumarin compound, RP -HPLC -fluorescence method (excitation 380 nm and emission 480 nm ) was applied on analysis of the concentration of scoparone and 6,7 -diprenoxycoumarin. […]
without interference with endogenous plasma constituents. […]
retention time of approximately 7.51 in mouse plasma.
0.01 to 10.00 µg/ml for scoparone and 0.025 to 6.25 µg/ml for 6,7 -diprenoxycoumarin. The relativ e error and coefficient of variance are all below 15 %. The LOQ were 0.01 and 0.005 µg/ml for scoparone and 6,7 - diprenoxycoumarin. Linearity over the investigated concentration was obtained.
After method validation, C57BL/6 mice were given scoparone (i.p.) or 6,7 -diprenoxycoumarin and plasma […]
In pharmacological assay, the desired scoparone […]
the amount of drug increased to 0.5 mg/mice. Thus, the CAR activating effect may not be seen in vivo, which can account for no blood sugar lowering effects of 6,7-diprenoxycoumarin in vivo.
Acetonitrile HPLC-grade (LiChrosolv® ) were purchased from Sigma-Aldrich Chemie GmbH. Deionized water was purified on a Milli-Q system. Scoparone and 6,7-diprenoxycoumarin were synthesized from our […]
lab and purity was > 95 % from HPLC-UV method.
Instrumentation and Chromatographic Condition
Hitachi L-7100 liquid chromatography system (Hitachi, Japan) comprised a Hitachi D-7000 interface, a Hitachi L-7200 auto sampler, a Hitachi L-7400 UV detector and a Hitachi L-2480 FL detector. The HPLC colum consisted of a Thermo Hypurity® RP-18 column (200 × 4.6 mm, 5 µm) connected to a Hichrom ODS guard column. The isocratic elution was applied for scoparone (ACN-H2O = 3:7) and 6,7-diprenoxycoumarin (ACN-H2O = 7:3). The flow rate was set at 1.0 ml/min. The detection fluorescence was set at excitation 380 nm and emission 480 nm. A volume of 20 µL of sample was subjected to HPLC for […]
Animals and Sample Preparation
Eight-week old male or female C57/BL6 mice were acquired from BioLASCO Taiwan Co., Ltd. Experimental animals were allowed to acclimate to the controlled photoperiod (a cycle of 12-hr light/ 12-hr dark), humidity (40-60% relative humidity) and temperature (22 ± 2 °C) with ad libitum supply of standard chow diets and drinking water for one week prior to the experimental treatment in accordance with the Guide for the Care and Use of Laboratory Animals (Institute of Laboratory Animal Resources Commission on Life Sciences, 2011). Acclimated animals were randomly separated into two groups: scoparone-treated or 6,7-diprenoxycoumarin-treated. Mice were administered indicated dose i.p. All mice were anesthetized with Zoetil (10 mg/ml, 0.05 ml/10 gmbw, i.p.) before blood sampling. The blood samples (approximately 300 µL) were […]
centrifuging at 10,000 rpm for 10 min, the plasma samples were obtained. The plasma (50 µL) was mixed with 150 µL ACN, vortexed, and centrifuged for […], 10 mins and at 4 °C. The supernatant was obtained and 20 µL of sample was subjected to HPLC analysis.
Institute of Laboratory Animal Resources Commission on Life Sciences, National Research Council. In Guide for the Care and Use of Laboratory Animals, 8th ed.; National Academy Press: Washington, DC, 2011.

[4] = Figure 2, after scoparone or CITCO treatment

Compound	protein expression of UGT1A (CAR downstream gene) [1, 4]	protein expression of MRP2 (CAR downstream gene) [2, 4]	Blood concentration, Cal. Conc. ([3]; Table S1, Study 1 mouse 1, dose given 0.2 mg i.p., 10 min) [ng/mL]	Blood concentration, Cal. Conc. ([3]; Table S1, Study 1 mouse 2, dose given 0.2 mg i.p., 60 min) [ng/mL]	Blood concentration, Cal. Conc. ([3]; Table S1, Study 1 mouse 3, dose given 0.2 mg i.p., 315 min) [ng/mL]	Blood concentration, Cal. Conc. ([3]; Table S1, Study 2 mouse 3, dose given 0.5 mg i.p., 320 min) [ng/mL]	desired plasma concentration (10 μM) reached [3]	UGT1A1 protein level ([1]; Hep3B)	protein expression level of MRP2 ([2]; Hep3B, 5, 10, 20 and 40 μM, 24 h)	Blood concentration, Cal. Conc. ([3]; Table S2, Study 1 mouse 1, dose given 0.36 mg i.p., 10 min) [ng/mL]	Blood concentration, Cal. Conc. ([3]; Table S2, Study 1 mouse 2, dose given 0.36 mg i.p., 60 min) [ng/mL]	Blood concentration, Cal. Conc. ([3]; Table S2, Study 1 mouse 3, dose given 0.36 mg i.p., 110 min) [ng/mL]	Blood concentration, Cal. Conc. ([3]; Table S2, Study 1 mouse 4, dose given 0.36 mg i.p., 360 min) [ng/mL]	Blood concentration, Cal. Conc. ([3]; Table S2, Study 2 mouse 1, dose given 0.5 mg i.p., 11 min) [ng/mL]	Blood concentration, Cal. Conc. ([3]; Table S2, Study 2 mouse 2, dose given 0.5 mg i.p., 60 min) [ng/mL]	Blood concentration, Cal. Conc. ([3]; Table S2, Study 2 mouse 3, dose given 0.5 mg i.p., 318 min) [ng/mL]
COc1cc2ccc(=O)oc2cc1OC [Compound 39, scoparone]	upregulated	upregulated	410	260	40	40	can be achieved	–	–	–	–	–	–	–	–	–
CC(C)=CCOc1cc2ccc(=O)oc2cc1OCC=C(C)C [Compound 50, 6,7-diprenoxycoumarin]	–	–	–	–	–	–	cannot be obtained	not significantly increased	enhanced	560	80	70	40	310	120	27

Reference: publication PMC7796031, “Studies of Coumarin Derivatives for Constitutive Androstane Receptor (CAR) Activation” (Molecules, 2020)
